Data on 28 compounds can be found in article PMC12132910, “A Novel Inhibitor against the Bromodomain Protein 1 of the Malaria Pathogen Plasmodium Falciparum” (Chemmedchem, 2025).

Where “and” joins values, the source holds several entries; their conditions need not be identical. Equal values may be shown once. Read-outs that look alike come from different tables or passages of the source.

One experiment deals with PfBDP1-BRD (Plasmodium falciparum, UniProt Q8IJ72). Briefly: Isothermal titration calorimetry (ITC) with PfBDP1-BRD. Particulars: 25 °C. The class given is binding. The procedure: and incubated at 37 °C and 180 rpm until an OD600 of ~2.5. The culture was cooled to 18 °C, induced with 0.2 mM IPTG, and incubated for 16 hours overnight. Cells were harvested by centrifugation (Beckman Coulter Avanti J-26 XP, Rotor: JLA 8.100 Rotor) at 5000 x g for 15 min at 4 °C.
The cell pellet was resuspended in PBS (1:3 w/v). The suspension was lysed by sonication (Branson Digital Sonifier 250; 15 min, 3 sec pulse, 10 sec pause, amplitude 70%) at 4 °C. Insoluble debris was removed by centrifugation (Beckmann Coulter Avanti-J30 I, Rotor: 30.50Ti) at 80,000 x g for 45 min at 4 °C. The lysate was then sterile-filtered (0.45 µm) and purified by […] affinity chromatography. The protein was cleaved using either PreScission Protease (PfBDP1-BRD-construct) or TEV Protease (PvBDP1-BRD-construct) separating the bromodomain from the fusion protein. Further separation of the cleaved GST tag and any remaining GST fusion protein was achieved by an additional round of GST affinity chromatography.
Specifically, we used Glutathione Sepharose High Performance (HP) resin (Cytiva, 17-5279-01). A 25 mL batch of resin was self-packed into a column, equilibrated with PBS, and used to purify GST-tagged proteins. The cleaved bromodomain, which […]
Following this step, the bromodomain protein was further purified by size exclusion chromatography using a HiLoad 26/600 Superdex 75 pg column (GE Healthcare).
Isothermal Titration Calorimetry (ITC)
Affinity was measured using a MicroCal VP-ITC microcalorimeter (Malvern Instruments). Measurements were performed at 25 °C with the ligand (0.04 mM) in PBS (Phosphate buffer saline; 137 mM NaCl, 10 mM phosphate, 2.7 mM KCl; pH 7.4) buffer present in the cell and the protein (0.4 mM) injected via a stirred syringe (351 revolutions per minute) in 5 min intervals (1 injection of 6 µL and 20 injections of 13.5 µL). Solutions were degassed prior to measurements. The first injection was discarded to account for any potential diffusion during equilibration. Automated baseline correction and peak integration were conducted using NITPIC[1,2]. Analysis, fitting, and thermodynamic calculations were performed using a binary interaction model in SEDPHAT[3], and plots were generated using GUSSI[4]. Confidence intervals were calculated using the “Automatic Confidence Interval Search with Projection” method in SEDPHAT. During the confidence level search, the confidence level was set to 0.99, and Simplex optimization was applied prior to Marquardt-Levenberg at each step. Error Surface Projection was performed by alternating between Simplex and Marquardt-Levenberg algorithms until convergence was achieved.
Supporting Table S1. Amino acid sequences of proteins used in this […]
PfBDP1-BRD Construct (Uniprot: Q8IJ72; Residues: 333-456)
The construct includes an N-terminal GST-tag followed by a Prescission protease cleavage site. After cleavage, the purified protein retains an additional […] sequence at […]
the N-terminus, which originates from the vector's multiple cloning site. […]

The next experiment concerns P. falciparum NF54. Briefly: Malaria SYBR green I based fluorescence assay, dose response, NF54. Format: cell-based. The note with it: Plasmodium falciparum, blood stage culture, 72 hours, mean (SD), 1 to 3 biological replicates. The procedure: (§1) The BRDi compounds had modest activity against all three strains (Table 2 ). […]
(§2) Shield1. Parasites were propagated in human red blood cells (blood group 0+) obtained from the Bavarian Red Cross service (BRK) and cultivated under standard conditions in RPMI 1640 (ThermoFisher) supplemented with 0.5% Albumax
(§3) (ThermoFisher), 20 µg/ml Gentamycin, 25 mM Hepes (pH 7.3), and 0.02% hypoxanthine in an atmosphere of 1% O2, 5% CO2, 94% N2.
(§4) Malaria SYBR green I based fluorescence assay
(§5) SYBR Green I based fluorescence assays to determine dose-response curves were performed essentially as described previously (Leidenberger et al., 2017). Briefly, parasite cultures were diluted to 1% ring stage parasitemia and cultivated at 2.5% haematocrit in 96 well plates in the presence of serial half-log dilutions of the compounds ranging from 100 µM to 10 nM or DMSO (dimethyl sulfoxide) corresponding to the highest concentration (0.1%). Chloroquine (C6628, Sigma-Aldrich) was used as control that was not expected to target PfBDP1 and was titrated from 5 µM to 1.6 nM. After 72 hours, cultures were lysed in lysis buffer (20 mM Tris-HCl, 5 mM EDTA, 0.008% saponin (Sigma-Aldrich), 0.08% Triton X (Sigma-Aldrich), 1:10,000 SYBR Green I dye (Invitrogen)) and fluorescence was measured in a Fluoroskan Ascent FL reader (excitation: 485 nm, emission: 530 nm). […]

In experiment [1] the test system is P. falciparum K1 (multidrug resistant). Briefly: Malaria SYBR green I based fluorescence assay, dose response, K1. The class given is cell-based. Particulars: Plasmodium falciparum, K1, 72 h, read-out: EC50 K1. How it is done:
as §1
resistant strain K1, MRA-159, contributed by Dennis E. Kyle. […]
as §2, §3, §4, §5

Experiment [2] deals with 3D7::PfBDP1HADD parasites. Briefly: Dose-response assay in conditional PfBDP1 knockdown parasites. Format: cell-based, Plasmodium falciparum. Particulars: 10 nM Shld1 compared to 500 nM Shld1, 72 h.
From the text: To validate whether the compounds indeed target the BRD of PfBDP1, we utilized a conditional KD system to modulate the expression levels of PfBDP1 in situ.^[ [15] ^] In the 3D7::PfBDP1HADD line, PfBDP1 is fused at its C‐terminus to a ligand‐regulatable FKBP destabilization domain (DD) that targets the fusion protein for proteasomal degradation but can be stabilized by the Shield1 ligand, and 3xHA epitope tags for detection ^11. […] In contrast, the EC50 of chloroquine was unchanged.
A) Western Blot analysis of 3D7::PfBDP1HADD parasites cultivated in the presence of Shield1 (Shld) in concentrations ranging from 0 to 500 nM over 72 h in duplicates. PfBDP1HADD was detected by anti‐HA antibodies. Histone 3 (H3) was probed as a loading control. […] Growth was determined relative to DMSO controls for each condition after 72 h of culture. N = 4 replicates. […] Binding of PfBDP1HA to target loci was calculated as enrichment relative to histone H3 ChIP performed in parallel. Shown are individual values and median of one representative experiment with technical duplicates. Paired t‐test, p = 0.0015. […]
resistant strain K1, MRA-159, contributed by Dennis E. Kyle. The NF54::PfBDP1HA parasite line was generated by transfection of NF54 parasites with the plasmid pSLI_PfBDP1_3xHA and selection linked integration of the construct in the presence of G418[21]. […]
as §4
SYBR Green I based fluorescence assays to determine dose-response curves were performed essentially as described previously (Leidenberger et al., 2017). […] After 72 hours, cultures were lysed in lysis buffer (20 mM Tris-HCl, 5 mM EDTA, 0.008% saponin (Sigma-Aldrich), 0.08% Triton X (Sigma-Aldrich), 1:10,000 SYBR Green I dye (Invitrogen)) and fluorescence was measured in a Fluoroskan Ascent FL reader (excitation: 485 nm, emission: 530 nm). […]

The test system of a further experiment is P. falciparum 3D7. Briefly: Malaria SYBR green I based fluorescence assay, dose response, 3D7. The class given is cell-based. The note with it: Plasmodium falciparum, blood stage culture, 72 hours, mean (SD), 1 to 3 biological replicates. How it is done: as §1, §2, §3, §4, §5

PfBDP1-BRD, sequence (Q8IJ72 entry or part of it): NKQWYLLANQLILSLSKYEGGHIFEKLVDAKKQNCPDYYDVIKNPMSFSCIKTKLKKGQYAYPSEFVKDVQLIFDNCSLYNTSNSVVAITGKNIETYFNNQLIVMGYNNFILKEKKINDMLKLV

For the compound `Cc1[nH]c(-c2cccc(N)c2)c2c1C(=O)CCCC2` [MPM2], the Kd on PfBDP1-BRD (PBS pH 7.4, read-out: K D) is 6.7 µM and 6.74 µM.

For the compound `Cc1[nH]c(-c2ccccc2)c2c1C(=O)CCCC2` [MPM3, 3-Methyl-1-phenyl-5,6,7,8-tetrahydrocyclohepta[c]pyrrol-4(2H)-one], at PfBDP1-BRD (PBS pH 7.4, read-out: K D), the Kd was 10 µM and 10.4 µM.

With `Cc1[nH]c(-c2cc(N)ccc2Cl)c2c1C(=O)CCCC2` [MPM6, reference compound], the Kd on PfBDP1-BRD (K D, PBS pH 7.4) was 4.53 µM.

Regarding `Cc1[nH]c(-c2cccc(C(N)=O)c2)c2c1C(=O)CCCC2` [MPM8], the Kd at PfBDP1-BRD (PBS pH 7.4, read-out: K D) amounted to 7.45 µM.

For `Cc1[nH]c(-c2ccccc2Cl)c2c1C(=O)CCCC2` [RMM1], at PfBDP1-BRD (PBS pH 7.4, read-out: K D), the Kd is 5.8 µM and 5.81 µM.

Take `Cc1ccccc1-c1[nH]c(C)c2c1CCCCC2=O` [RMM2]: at PfBDP1-BRD (PBS pH 7.4, read-out: K D), the Kd was 3.9 µM and 3.94 µM.

As to `CCc1ccccc1-c1[nH]c(C)c2c1CCCCC2=O` [RMM3], on PfBDP1-BRD (PBS pH 7.4, read-out: K D), the Kd turned out to be 9.17 µM.

With `Cc1[nH]c(-c2ccccc2C(F)(F)F)c2c1C(=O)CCCC2` [RMM4], at PfBDP1-BRD (PBS pH 7.4, read-out: K D), the Kd is 2.9 µM and 2.94 µM.

Regarding `COc1ccccc1-c1[nH]c(C)c2c1CCCCC2=O` [RMM5], the Kd on PfBDP1-BRD (PBS pH 7.4, read-out: K D) stood at 7.13 µM.

Turning to `Cc1cccc(-c2[nH]c(C)c3c2CCCCC3=O)c1` [RMM6, 3-Methyl-1-(m-tolyl)-5,6,7,8-tetrahydrocyclohepta[c]pyrrol-4(2H)-one], the Kd at PfBDP1-BRD (PBS pH 7.4, read-out: K D) was 6.2 µM and 6.22 µM.

For `Cc1[nH]c(-c2cccc([N+](=O)[O-])c2)c2c1C(=O)CCCC2` [RMM7, 3-Methyl-1-(3-nitrophenyl)-5,6,7,8-tetrahydrocyclohepta[c]pyrrol-4(2H)-one], the Kd on PfBDP1-BRD (PBS pH 7.4, read-out: K D) stood at 16.9 µM.

On to `CNc1cccc(-c2[nH]c(C)c3c2CCCCC3=O)c1` [RMM8, 3-Methyl-1-(3-(methylamino)phenyl)-5,6,7,8-tetrahydrocyclohepta[c]pyrrol-4(2H)-one], for which the Kd on PfBDP1-BRD (PBS pH 7.4, read-out: K D) worked out at 9.16 µM.

In the case of `Cc1[nH]c(-c2cccc(N(C)C)c2)c2c1C(=O)CCCC2` [RMM9, 1-(3-(dimethylamino)phenyl)-3-methyl-5,6,7,8-tetrahydrocyclohepta[c]pyrrol-4(2H)-one], the Kd on PfBDP1-BRD (PBS pH 7.4, read-out: K D) was 8.03 µM.

As to `CC(=O)Nc1cccc(-c2[nH]c(C)c3c2CCCCC3=O)c1` [RMM10], at PfBDP1-BRD (PBS pH 7.4, read-out: K D), the Kd amounted to 6.96 µM.

Regarding `Cc1[nH]c(-c2cccc(NS(C)(=O)=O)c2)c2c1C(=O)CCCC2` [RMM11], at PfBDP1-BRD (PBS pH 7.4, read-out: K D), the Kd came to 4.7 µM.

Regarding `Cc1[nH]c(-c2cccc(S(N)(=O)=O)c2)c2c1C(=O)CCCC2` [RMM13], on PfBDP1-BRD (PBS pH 7.4, read-out: K D), the Kd is 4.9 µM and 4.93 µM.

With `Cc1ccc(-c2[nH]c(C)c3c2CCCCC3=O)cc1` [RMM14], the Kd on PfBDP1-BRD (PBS pH 7.4, read-out: K D) is 11.7 µM.

Consider `Cc1[nH]c(-c2ccc(C(N)=O)cc2)c2c1C(=O)CCCC2` [RMM15], for which the Kd on PfBDP1-BRD (PBS pH 7.4, read-out: K D) was determined as 4.49 µM.

Turning to `CNC(=O)c1ccc(-c2[nH]c(C)c3c2CCCCC3=O)cc1` [RMM16], the Kd at PfBDP1-BRD (PBS pH 7.4, read-out: K D) is 5.14 µM.

Consider `Cc1[nH]c(-c2ccc(C(=O)N(C)C)cc2)c2c1C(=O)CCCC2` [RMM17], for which the Kd at PfBDP1-BRD (PBS pH 7.4, read-out: K D) is 42.4 µM.

For the compound `Cc1[nH]c(-c2ccc(C#N)cc2)c2c1C(=O)CCCC2` [RMM18], the Kd on PfBDP1-BRD (PBS pH 7.4, read-out: K D) came out at 4.54 µM.

Turning to `Cc1[nH]c(-c2ccc(S(N)(=O)=O)cc2)c2c1C(=O)CCCC2` [RMM19], the Kd at PfBDP1-BRD (PBS pH 7.4, read-out: K D) was found to be 6.39 µM.

In the case of `Cc1ccc(NS(C)(=O)=O)cc1-c1[nH]c(C)c2c1CCCCC2=O` [RMM20], the Kd on PfBDP1-BRD (PBS pH 7.4, read-out: K D) was determined as 8.17 µM.

As for `Cc1[nH]c(-c2cccc(NS(C)(=O)=O)c2C)c2c1C(=O)CCCC2` [RMM21, N-(2-Methyl-3-(3-methyl-4-oxo-2,4,5,6,7,8-hexahydrocyclohepta[c]pyrrol-1-yl)phenyl)methanesulfonamide], the Kd on PfBDP1-BRD (PBS pH 7.4, read-out: K D) stood at 2.76 µM.

As to `Cc1cc(C#N)ccc1-c1[nH]c(C)c2c1CCCCC2=O` [RMM22, 3-Methyl-4-(3-methyl-4-oxo-2,4,5,6,7,8-hexahydrocyclohepta[c]pyrrol-1-yl)benzonitrile], the Kd at PfBDP1-BRD (PBS pH 7.4, read-out: K D) was found to be 2.34 µM.

On to `Cc1cc(C#N)cc(C)c1-c1[nH]c(C)c2c1CCCCC2=O` [RMM24, 3,5-dimethyl-4-(3-methyl-4-oxo-2,4,5,6,7,8-hexahydrocyclohepta[c]pyrrol-1-yl)benzonitrile], for which the Kd on PfBDP1-BRD (PBS pH 7.4, read-out: K D) came to 1.22 µM.

Regarding `Cc1cc(C(N)=O)cc(C)c1-c1[nH]c(C)c2c1CCCCC2=O` [RMM25, 3,5-Dimethyl-4-(3-methyl-4-oxo-2,4,5,6,7,8-hexahydrocyclohepta[c]pyrrol-1-yl)benzamide], the EC50 worked out at 12.2 µM in the experiment with P. falciparum NF54, 7.35 µM in experiment [1] and 19 µM in the experiment with P. falciparum 3D7. The Kd on PfBDP1-BRD (PBS pH 7.4, read-out: K D) came to 0.896 µM. Moreover, the “change of sensitivity (dose-response, EC50) under partial PfBDP1 knockdown” value in experiment [2] was “moderately increased sensitivity”.

With `CCN(CC)CCCC(C)Nc1ccnc2cc(Cl)ccc12` (centres unmarked) [chloroquine, Chloroquine, reference compound], in experiment [2], the “change of sensitivity (dose-response, EC50) under partial PfBDP1 knockdown” value is recorded as “unchanged”.
